Literature values as cited in patent US11707455B2, “Pharmaceutical composition containing dabigatran etexilate and preparation method thereof” (SHANGHAI WD PHARMACEUTICAL CO., LTD, priority 2018, dated 2023).

Tests used:
[1] = in vivo
[2] = pH 1

Cmax variation range [1]: ≤ 5 folds
maximum solubility [2]: greater than 80 mg/mL
Structure (SMILES): CCCCCCOC(=O)N=C(N)c1ccc(NCc2nc3cc(C(=O)N(CCC(=O)OCC)c4ccccn4)ccc3n2C)cc1.CS(=O)(=O)O [DEM]
